Data reported in the supplement of paper PMC10307832.

Experiments:
Assay in all cases: relative viability (nuclei count vs DMSO), 5 days (fraction); higher = more cells survive
[1] = compound: CN(c1ncccc1CNc1nc(Nc2ccc3c(c2)CC(=O)N3)ncc1C(F)(F)F)S(C)(=O)=O + COc1cc2c(Oc3ccc(NC(=O)C4(C(=O)Nc5ccc(F)cc5)CC4)cc3F)ccnc2cc1OCCCN1CCOCC1 [Foretinib] (partner 0.25 µM)
Outline: (§1)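 Lung cancer cell lines were seeded in 1536-well plates and dosed by pin tool the next day, with either a single drug or a fixed anchor-drug dose combined with five library-drug doses (not always all listed) spaced in √10 steps. Five days later, one step fixed the cells and stained their nuclei (final 0.05% Triton X-100, 1% formaldehyde, 1 ug/ml Hoechst), and nuclei were counted on 4× images. Relative viability is the nuclei count in treated wells divided by the count in vehicle wells, and each value is the median of duplicate plates.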

[2] = compound: CN(c1ncccc1CNc1nc(Nc2ccc3c(c2)CC(=O)N3)ncc1C(F)(F)F)S(C)(=O)=O + Cc1nc(Nc2ncc(C(=O)Nc3c(C)cccc3Cl)s2)cc(N2CCN(CCO)CC2)n1 [Dasatinib] (partner 0.075 µM)
Outline: as §1

[3] = compound: CN(c1ncccc1CNc1nc(Nc2ccc3c(c2)CC(=O)N3)ncc1C(F)(F)F)S(C)(=O)=O + Nc1ncn([C@H]2C[C@H](O)[C@@H](CO)O2)c(=O)n1 [Decitabine] (partner 2 µM)
Outline: as §1

[4] = compound: CN(c1ncccc1CNc1nc(Nc2ccc3c(c2)CC(=O)N3)ncc1C(F)(F)F)S(C)(=O)=O + CCNC(=O)c1noc(-c2cc(C(C)C)c(O)cc2O)c1-c1ccc(CN2CCOCC2)cc1 [Luminespib] (partner 0.01 µM)
Outline: as §1

Cell Line	relative viability ([1]; first compound 0.01 µM)	relative viability ([1]; first compound 0.03162 µM)	relative viability ([1]; first compound 0.1 µM)	relative viability ([1]; first compound 0.3162 µM)	relative viability ([1]; first compound 1 µM)	relative viability ([2]; first compound 0.01 µM)	relative viability ([2]; first compound 0.03162 µM)	relative viability ([2]; first compound 0.1 µM)	relative viability ([2]; first compound 0.3162 µM)	relative viability ([2]; first compound 1 µM)	relative viability ([3]; first compound 0.01 µM)	relative viability ([3]; first compound 0.03162 µM)	relative viability ([3]; first compound 0.1 µM)	relative viability ([3]; first compound 0.3162 µM)	relative viability ([3]; first compound 1 µM)	relative viability ([4]; first compound 0.01 µM)	relative viability ([4]; first compound 0.03162 µM)	relative viability ([4]; first compound 0.1 µM)	relative viability ([4]; first compound 0.3162 µM)	relative viability ([4]; first compound 1 µM)
HCC-366	0.899	0.925	0.942	0.982	0.781	0.541	0.904	0.598	0.644	0.687	0.332	0.369	0.327	0.354	0.307	–	–	–	–	–
HCC-827	0.985	1.05	1.15	1.04	1.05	0.191	0.185	0.115	0.107	0.109	0.284	0.309	0.348	0.413	0.391	0.346	0.612	0.595	1.02	0.629
HOP-62	1.04	1.16	0.958	1.02	1.03	0.616	0.512	0.5	0.301	0.301	0.208	0.212	0.256	0.211	0.245	0.969	0.933	0.949	0.932	0.699
IA-LM	1.25	1.17	0.917	1.27	0.874	–	–	–	–	–	–	–	–	–	–	–	–	–	–	–
LC-2-ad	0.851	0.865	0.967	0.939	0.933	0.414	0.484	0.492	0.399	0.335	0.789	0.833	0.828	0.852	0.863	1.22	1.05	0.967	0.98	0.845
LCLC-97TM1	0.97	0.986	0.867	0.864	0.844	0.727	0.794	0.815	0.773	0.722	0.228	0.212	0.2	0.238	0.215	0.779	0.854	0.788	0.81	0.632
LCLC-103H	0.677	0.751	0.765	0.766	0.759	0.47	0.36	0.481	0.442	0.332	0.68	0.673	0.697	0.672	0.684	0.754	0.927	0.918	0.892	0.752
LK-2	1.02	1.06	1.21	1.3	1.52	0.316	0.293	0.269	0.312	0.27	0.287	0.294	0.31	0.308	0.292	0.175	0.174	0.165	0.201	0.235
LOU-NH91	0.945	1.02	0.88	1.04	0.999	0.56	0.526	0.491	0.501	0.448	0.863	0.832	0.812	0.844	0.839	0.322	0.366	0.313	0.351	0.355
LU99A	0.838	0.873	0.841	0.947	0.929	0.63	0.529	0.378	0.254	0.267	0.959	0.996	0.907	0.874	0.913	0.316	0.264	0.323	0.325	0.246
LXF-289	1.04	1.01	1.02	1.04	0.968	0.187	0.181	0.129	0.12	0.121	0.374	0.427	0.419	0.412	0.447	0.679	0.728	0.645	0.656	0.622
NCI-H23	0.914	1.08	1.08	1.06	0.861	0.78	0.697	0.882	0.835	0.719	0.308	0.345	0.319	0.332	0.292	0.182	0.204	0.207	0.228	0.207
NCI-H322M	1.05	1.09	0.986	1.21	1.31	0.205	0.178	0.223	0.199	0.219	0.697	0.802	0.775	0.681	0.714	0.798	1	0.966	1.03	0.896
NCI-H358	0.717	0.659	0.782	0.638	0.517	0.202	0.15	0.137	0.22	0.167	0.195	0.221	0.251	0.221	0.183	0.292	0.465	0.397	0.247	0.214
NCI-H1299	1.12	1.1	1.05	1.09	1.08	–	–	–	–	–	–	–	–	–	–	–	–	–	–	–
NCI-H1563	0.996	0.907	1.04	0.899	0.863	0.458	0.422	0.429	0.372	0.385	–	–	–	–	–	0.538	0.528	0.53	0.482	0.547
NCI-H1648	–	–	–	–	–	–	–	–	–	–	0.6	0.476	0.426	0.485	0.367	–	–	–	–	–
NCI-H1703	0.37	0.3	0.36	0.332	0.349	–	–	–	–	–	–	–	–	–	–	–	–	–	–	–
NCI-H1792	–	–	–	–	–	0.803	0.841	0.623	0.581	0.55	0.469	0.586	0.523	0.606	0.586	0.387	0.54	0.467	0.451	0.359
NCI-H2228	1	0.995	0.749	0.927	0.811	0.549	0.433	0.42	0.404	0.339	–	–	–	–	–	0.144	0.23	0.0915	0.182	0.103
